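Step 1: Grow cells in 96-well plates. Step 2: Expose to compound for 48 hours at 5 concentrations. Step 3: Interpolate endpoints linearly; if unreached, use highest concentration. Abbreviation: GI50, concentration required for 50% inhibition of growth. At the TGI there is no net growth.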 Where a SMILES comes first, the peptide text is derived from it. [ ]: non-standard residue; d: D form. ξ: configuration not given here. ξLac(3-iPr) = CC(C)CC(O)C(=O)O; NMeV = CN[CH](C(=O)O)C(C)C; NMeA = CN[CH](C)C(=O)O; βAla = NCCC(=O)O
What was measured:
Assay in all cases: DTP human tumour cell line panel, 48 h
786-0 renal = test system: 786-0 renal
SF-539 CNS = test system: SF-539 CNS
NCI-H460 lung = test system: NCI-H460 lung
CCRF-CEM leukemia = test system: CCRF-CEM leukemia
LOX IMVI melanoma = test system: LOX IMVI melanoma
MDA-MB-231 breast = test system: MDA-MB-231 breast
HS 578T breast = test system: HS 578T breast
NCI/ADR-RES ovarian = test system: NCI/ADR-RES ovarian
MDA-N = test system: MDA-N
RXF 393 renal = test system: RXF 393 renal
SNB-19 CNS = test system: SNB-19 CNS
PC-3 prostate = test system: PC-3 prostate
HOP-92 NSCLC = test system: HOP-92 NSCLC
NCI-H522 lung = test system: NCI-H522 lung

SMILES | TGI (786-0 renal) | TGI (SF-539 CNS) | TGI (NCI-H460 lung) | TGI (CCRF-CEM leukemia) | TGI (LOX IMVI melanoma) | TGI (MDA-MB-231 breast) | TGI (HS 578T breast) | TGI (NCI/ADR-RES ovarian) | TGI (MDA-N) | TGI (RXF 393 renal) | TGI (SNB-19 CNS) | TGI (PC-3 prostate) | TGI (HOP-92 NSCLC) | TGI (NCI-H522 lung) | GI50 (SF-539 CNS) | GI50 (CCRF-CEM leukemia) | GI50 (LOX IMVI melanoma) | GI50 (MDA-MB-231 breast) | GI50 (HOP-92 NSCLC)
O=C1/C(=C/c2ccc(Oc3ccccc3)cc2)N=C(c2ccccc2)N1c1ccc(S(=O)(=O)Nc2nccs2)cc1 | > 100 µM | > 100 µM | > 100 µM | > 100 µM | 70.5 µM | > 100 µM | > 100 µM | 46.6 µM | 15.8 µM | 93.4 µM | > 100 µM | > 100 µM | 99.7 µM | – | – | – | – | – | –
CCN(CC)c1ccc2nc3ccc(N=Nc4c(O)ccc5ccccc45)cc3[n+](-c3ccccc3)c2c1 | > 100 µM | – | – | > 100 µM | – | > 100 µM | > 100 µM | > 100 µM | > 100 µM | > 100 µM | > 100 µM | > 100 µM | > 100 µM | > 100 µM | – | – | – | – | –
Cc1ccc(C2COc3cc(O)c(O)cc3C2)cc1 (stereo not given) | – | 68.4 µM | 236 µM | 12.3 µM | – | – | – | 40.8 µM | – | 26.2 µM | 251 µM | – | – | – | – | – | – | – | –
N#CC(C#N)N=Nc1ccc(-c2nc3ccccc3o2)cc1 | 30.8 µM | 26.1 µM | 30.4 µM | – | 29 µM | 61.7 µM | > 100 µM | 62.9 µM | 45.2 µM | – | 60 µM | 29.2 µM | > 100 µM | 73.7 µM | – | – | – | – | –
C[C@]12CC[C@@H]3c4ccc(O)cc4CC[C@H]3[C@@H]1CC[C@@H]2OC(=O)CCc1ccccc1 | > 100 µM | – | 42.6 µM | 67.5 µM | 39.4 µM | 33.4 µM | 17.9 µM | 33.8 µM | 52.9 µM | 33.6 µM | 37.7 µM | 34.4 µM | 36.8 µM | 32.9 µM | – | – | – | – | –
O=C1C=CC(=O)c2c(O)c(Br)c(Br)c(O)c21 | 3.32 µM | 30.5 µM | 34.1 µM | 3.92 µM | – | 7.43 µM | 69.1 µM | 58.7 µM | 5.67 µM | 6.13 µM | 33.1 µM | 29.6 µM | 4.18 µM | – | – | – | – | – | –
O=C(O)CCC(N=NNc1ccc(-c2nc3ccccc3[nH]2)cc1)C(=O)O (stereo not given) | > 100 µM | > 100 µM | > 100 µM | > 100 µM | > 100 µM | > 100 µM | > 100 µM | > 100 µM | > 100 µM | > 100 µM | > 100 µM | > 100 µM | > 100 µM | > 100 µM | – | – | – | – | –
CCC(C)C1NC(=O)C2CCCN2C(=O)C(CC(C)C)OC(=O)CCNC(=O)C(C)N(C)C(=O)C(C(C)C)N(C)C1=O (stereo not given) (cyclo([ξLac(3-iPr)]PI[NMeV][NMeA][βAla]); configuration not given here) | 17.6 µM | > 80.3 µM | > 100 µM | > 17.9 µM | – | > 100 µM | > 96.3 µM | > 86.9 µM | 17.3 µM | 98 µM | > 100 µM | > 100 µM | > 100 µM | 60.2 µM | – | – | – | – | –
COc1cc(C(=O)CC2OC(=O)C(Cl)=C2Cl)ccc1Cl (stereo not given) | – | > 100 µM | > 100 µM | > 100 µM | > 100 µM | – | – | – | – | > 100 µM | > 100 µM | – | > 100 µM | > 100 µM | – | – | – | – | –
CO/N=C\c1cc(O)c(O)c(/C=N/OC)c1 | – | > 100 µM | > 100 µM | > 100 µM | > 100 µM | > 100 µM | 71.1 µM | > 100 µM | > 100 µM | > 100 µM | > 100 µM | > 100 µM | > 100 µM | > 100 µM | – | – | – | – | –
O=C(c1ccccc1)c1nc2ccc(Cl)cc2c2c1CCCO2 | – | – | > 100 µM | – | > 100 µM | – | – | – | – | > 100 µM | > 100 µM | – | – | > 100 µM | – | – | – | – | –
N#C/C(=C\c1ccc(Br)cc1)n1nnc2cc(Cl)c(Cl)cc21 | – | 4.86 µM | – | > 100 µM | 3.3 µM | 8 µM | – | – | – | – | – | – | 3.79 µM | – | 2.2 µM | 1.71 µM | 1.71 µM | 2.31 µM | 1.14 µM
O=C(N/N=C/c1ccc([N+](=O)[O-])cc1)Nc1ccc(Br)cc1 | > 100 µM | > 100 µM | > 100 µM | 84.5 µM | > 100 µM | > 100 µM | > 100 µM | > 100 µM | > 100 µM | > 100 µM | > 100 µM | > 100 µM | > 100 µM | > 100 µM | – | – | – | – | –
Clc1ccc(C[P+]2(c3ccccc3)CCCCC2)cc1 | > 100 µM | > 100 µM | > 100 µM | > 100 µM | > 100 µM | – | – | – | – | > 100 µM | > 100 µM | – | – | > 100 µM | – | – | – | – | –
CC(NC(=O)c1ccc(NP(=O)(OCc2ccc([N+](=O)[O-])o2)N(C)CCCCCl)cc1)c1ccc(OCC2CCCCC2)c(C(N)=O)c1 (stereo not given) | 45.9 µM | 33.7 µM | 72.3 µM | 16.5 µM | 27 µM | 35 µM | 42.9 µM | > 100 µM | 62.4 µM | 31 µM | 90.8 µM | > 100 µM | 20.6 µM | 34.2 µM | – | – | – | – | –
O=C1c2ccccc2C(=O)c2c(Nc3cc4c5c(ccc6c7ccc8c9c(cc(Nc%10cccc%11c%10C(=O)c%10ccccc%10C%11=O)c(c3c56)c97)-c3ccccc3C8=O)C(=O)c3ccccc3-4)cccc21 | > 100 µM | – | – | – | > 100 µM | > 100 µM | 61.1 µM | > 100 µM | > 100 µM | > 100 µM | > 100 µM | > 100 µM | > 100 µM | > 100 µM | – | – | – | – | –
O=C(c1ccccc1)C1C(c2ccccc2)N1S(=O)(=O)c1ccccc1 (stereo not given) | – | > 100 µM | – | > 100 µM | > 100 µM | > 100 µM | > 100 µM | > 100 µM | > 100 µM | > 100 µM | – | > 100 µM | – | > 100 µM | – | – | – | – | –
OCc1cc2ccncc2c2c1[nH]c1ccccc12 | – | 14.8 µM | 19.5 µM | > 100 µM | 16.3 µM | – | – | – | – | 9.77 µM | – | – | 82.5 µM | – | – | – | – | – | –
Cc1nc2[nH]ncn2c(=O)c1CCCl | – | > 10 µM | > 10 µM | > 10 µM | > 10 µM | > 10 µM | > 10 µM | > 10 µM | > 10 µM | > 10 µM | > 10 µM | > 10 µM | – | > 10 µM | – | – | – | – | –
CC(=O)n1cc(OP(=O)(Oc2ccccc2)Oc2ccccc2)c2ccccc21 | > 100 µM | 42.5 µM | 50.8 µM | 50.4 µM | 62.1 µM | 86.4 µM | > 100 µM | 44.3 µM | > 100 µM | – | > 100 µM | 31 µM | – | – | – | – | – | – | –
Clc1ccc(OCc2nnc3sc(-c4ccc(-c5ccc(Cl)cc5Cl)o4)nn23)cc1 | > 100 µM | – | > 100 µM | > 100 µM | > 100 µM | > 100 µM | > 100 µM | > 100 µM | > 100 µM | 54 µM | > 100 µM | > 100 µM | > 100 µM | > 100 µM | – | – | – | – | –
CN=C(N)c1ccc(N=C(N)c2ccc(C(N)=Nc3ccc(C(N)=NC)cc3)cc2)cc1 | > 100 µM | > 100 µM | > 100 µM | > 100 µM | > 100 µM | – | – | – | – | > 100 µM | > 100 µM | – | > 100 µM | > 100 µM | – | – | – | – | –
Cc1ccc2c(ccc(/C=C\c3cc(C)c4cccnc4c3O)[n+]2C)c1 | > 100 µM | 25.1 µM | 18 µM | 26 µM | 56.2 µM | – | – | – | – | – | 35 µM | – | – | 27.8 µM | – | – | – | – | –
CC1(C)N=C(N)N=C(N)N1c1cccc(C(=O)Nc2ccc(S(=O)(=O)F)cc2)c1 | > 100 µM | > 100 µM | > 100 µM | > 100 µM | > 100 µM | > 100 µM | > 100 µM | > 100 µM | > 100 µM | > 100 µM | > 100 µM | > 100 µM | > 100 µM | > 100 µM | – | – | – | – | –
Oc1c(Br)cc(/C=C/c2cccc(/C=C/c3cc(Br)c(O)c(Br)c3)n2)cc1Br | 28 µM | 26.6 µM | 11.3 µM | – | 28.8 µM | 49.4 µM | 66.9 µM | 85.6 µM | 39.6 µM | – | 29.4 µM | 25.1 µM | 29.6 µM | – | – | – | – | – | –
